Data as given in patent US5646172A, “Method of inducing antiandrogenic activity using imidazolidines substituted with a heterocycle” (Roussel Uclaf, priority 1994, dated 1997).

Molecular target: T1, androgen receptor (Rattus norvegicus, UniProt P15207)
T1 construct: from tissue; host or cells: prostate cytosol (209,000 g supernatant) of male Sprague Dawley rats castrated 24 hours previously
T1 sequence (P15207 1-902): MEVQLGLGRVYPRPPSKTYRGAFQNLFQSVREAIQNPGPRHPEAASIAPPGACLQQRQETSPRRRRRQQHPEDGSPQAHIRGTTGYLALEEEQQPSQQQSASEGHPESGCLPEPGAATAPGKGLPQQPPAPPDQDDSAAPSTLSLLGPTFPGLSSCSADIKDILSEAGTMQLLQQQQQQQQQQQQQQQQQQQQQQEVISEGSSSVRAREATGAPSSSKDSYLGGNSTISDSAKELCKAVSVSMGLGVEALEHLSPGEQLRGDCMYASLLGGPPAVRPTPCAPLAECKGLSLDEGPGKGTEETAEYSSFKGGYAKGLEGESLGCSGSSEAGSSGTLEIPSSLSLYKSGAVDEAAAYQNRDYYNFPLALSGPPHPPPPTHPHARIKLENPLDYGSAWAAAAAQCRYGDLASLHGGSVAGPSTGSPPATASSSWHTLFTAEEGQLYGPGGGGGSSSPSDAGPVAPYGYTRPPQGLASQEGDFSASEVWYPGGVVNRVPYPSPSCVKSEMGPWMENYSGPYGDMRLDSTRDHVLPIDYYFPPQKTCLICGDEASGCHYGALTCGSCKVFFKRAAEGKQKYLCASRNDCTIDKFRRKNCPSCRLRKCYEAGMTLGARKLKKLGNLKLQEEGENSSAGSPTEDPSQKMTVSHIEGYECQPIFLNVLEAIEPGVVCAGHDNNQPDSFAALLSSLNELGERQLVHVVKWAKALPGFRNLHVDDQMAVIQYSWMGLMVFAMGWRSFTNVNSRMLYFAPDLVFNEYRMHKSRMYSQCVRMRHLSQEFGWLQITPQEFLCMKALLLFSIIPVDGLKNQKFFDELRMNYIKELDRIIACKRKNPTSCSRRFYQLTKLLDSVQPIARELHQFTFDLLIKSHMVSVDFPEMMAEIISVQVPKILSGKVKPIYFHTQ
Assay: Affinity of the products for the androgen receptor (relative bond affinity, displacement of tritiated testosterone in prostate cytosol)
Format: binding
Experimental: Study of the affinity of the products for the androgen receptor
Calculation of the relative bond affinity (RBA).
The following 2 curves were drawn: the percentage of bound tritiated hormone B/T as a function of the logarithm of the concentration of the unlabelled reference hormone and B/T as a function of the logarithm of the concentration of the unlabelled tested product. The straight line of the equation I50 =(B/Tmax+B/Tmin)/2 was determined.
B/T max=% of the bound tritiated hormone for an incubation of this tritiated hormone at the concentration (T).
B/T min=% of the bound tritiated hormone for an incubation of this tritiated hormone at the concentration (T) in the presence of a large excess of unlabelled hormone (2500.10^-9 M).
The intersections of the straight line I50 and the curves allowed the evaluation of the concentrations of the unlabelled reference hormone (CH) and of the tested unlabelled product (CX) which inhibit by 50% the binding of the tritiated hormone on the receptor.

| Compound | RBA: Incubation 24 hours |
| --- | --- |
| N#Cc1ccc(N2C(=O)N(CCCCO)C3(CCOCC3)C2=O)cc1C(F)(F)F [Example 3, 4-(2,4-dioxo-1-(4-hydroxybutyl)-8-oxa-1,3-diazaspiro[4.5]decan-3-yl)-2-(trifluoromethyl)-benzonitrile] | 6 |
| N#CCN1C(=O)N(c2ccc(C#N)c(C(F)(F)F)c2)C(=O)C12CCOCC2 [Example 10, 3-(4-cyano-3-(trifluoromethyl)-phenyl)-2,4-dioxo-8-oxa-1,3-diazaspiro[4.5]decan-1-acetonitrile] | 5 |
